In ChEMBL document CHEMBL3286339, “Synthesis and in vivo SAR study of indolin-2-one-based multi-targeted inhibitors as potential anticancer agents” (Eur J Med Chem, 2014):
Active and inactive are the calls of the source. No cut-off for these calls is given here.

Experiments:
[1] = system: Aorta; assay: Inhibition of micrangium generation in Sprague-Dawley rat aortic ring at 0.2 ug/ml after 6 days by inverted microscopic analysis; type: functional, tissue-based
[2] = system: HT-29; assay: Antitumor activity against human HT-29 cells xenografted in BALB/c nude mouse assessed as tumor growth inhibition at 80 mg/kg/day administered qd measured up to day 21 relative to control; type: functional
[3] = system: Aorta; assay: Antiangiogenic activity in Sprague-Dawley rat aortic ring at 0.2 ug/ml after 6 days by inverted microscopic analysis; type: functional, tissue-based
[4] = system: Mus musculus; assay: Toxicity in BALB/c nude mouse xenografted with human HT-29 cells assessed as severe weight loss at 80 mg/kg/day administered qd; type: organism-based; conditions: in vivo
[5] = system: Mus musculus; assay: Toxicity in BALB/c nude mouse xenografted with human NCI-H460 cells assessed as bloody stool at 40 mg/kg/day administered qd; type: organism-based; conditions: in vivo
[6] = system: Mus musculus; assay: Toxicity in BALB/c nude mouse xenografted with human NCI-H460 cells assessed as hematuria at 40 mg/kg/day administered qd; type: organism-based; conditions: in vivo
[7] = system: Mus musculus; assay: Toxicity in BALB/c nude mouse xenografted with human HT-29 cells assessed as bloody stool at 80 mg/kg/day administered qd measured up to day 21; type: organism-based; conditions: in vivo
[8] = system: Mus musculus; assay: Toxicity in BALB/c nude mouse xenografted with human HT-29 cells assessed as hematuria at 80 mg/kg/day administered qd measured up to day 21; type: organism-based; conditions: in vivo
[9] = system: NCI-H460; assay: Antitumor activity against human NCI-H460 cells xenografted in BALB/c nude mouse assessed as tumor growth inhibition at 40 mg/kg/day administered qd measured up to day 21 relative to control; type: functional
[10] = system: Mus musculus; assay: Toxicity in BALB/c nude mouse xenografted with human NCI-H460 cells assessed as severe weight loss at 40 mg/kg/day administered qd; type: organism-based; conditions: in vivo
[11] = system: Mus musculus; assay: Toxicity in BALB/c nude mouse xenografted with human HT-29 cells assessed as weight loss at 80 mg/kg/day administered qd measured up to day 21; type: organism-based; conditions: in vivo
[12] = system: Mus musculus; assay: Toxicity in BALB/c nude mouse xenografted with human HT-29 cells assessed as mortality at 80 mg/kg/day administered qd measured after 6 days; type: organism-based; conditions: in vivo, 144 h
[13] = system: Mus musculus; assay: Toxicity in BALB/c nude mouse xenografted with human HT-29 cells assessed as lethargic behavior at 80 mg/kg/day administered qd; type: organism-based; conditions: in vivo
[14] = system: Mus musculus; assay: Toxicity in BALB/c nude mouse xenografted with human HT-29 cells assessed as weakness at 80 mg/kg/day administered qd; type: organism-based; conditions: in vivo
[15] = system: Mus musculus; assay: Toxicity in BALB/c nude mouse xenografted with human HT-29 cells assessed as development of diarrhea at 80 mg/kg/day administered qd; type: organism-based; conditions: in vivo
[16] = system: Mus musculus; assay: Toxicity in BALB/c nude mouse xenografted with human HT-29 cells assessed as severe weight loss at 80 mg/kg/day administered qd measured after 6 days; type: organism-based; conditions: in vivo, 144 h
[17] = system: Mus musculus; assay: Toxicity in BALB/c nude mouse xenografted with human HT-29 cells assessed as severe weight loss at 80 mg/kg/day administered qd measured after 3 days; type: organism-based; conditions: in vivo, 72 h
[18] = system: Mus musculus; assay: Toxicity in BALB/c nude mouse xenografted with human HT-29 cells assessed as mortality at 80 mg/kg/day administered qd measured on day 12; type: organism-based; conditions: in vivo

| Structure (SMILES) | inhibition [1] | Activity [2] | inhibition [3] | Activity [5] | Activity [6] | Activity [7] | Activity [8] | TGI [9] | Activity [10] | also measured |
| --- | --- | --- | --- | --- | --- | --- | --- | --- | --- | --- |
| Cc1[nH]c(/C=C2\C(=O)Nc3ccc(F)cc32)c(C)c1NC(=O)CCN(C)C | Active | Active | Active | – | – | – | – | – | – | – |
| Cc1[nH]c(/C=C2\C(=O)Nc3ccc(F)cc32)c(C)c1NC(=O)CCN1CCCCC1 | Active | Active | Active | Non-toxic | Non-toxic | Non-toxic | Non-toxic | Active | Non-toxic | Activity [4]: Non-toxic |
| Cc1[nH]c(/C=C2\C(=O)Nc3ccc(F)cc32)c(C)c1NC(=O)CN1CCCCC1 | Active | – | Active | Non-toxic | Non-toxic | – | – | inactive | Non-toxic | – |
| Cc1[nH]c(/C=C2\C(=O)Nc3ccc(F)cc32)c(C)c1C(=O)N1CCN(C)CC1 | Active | Active | Active | – | – | Non-toxic | Non-toxic | – | – | Activity [11]: Non-toxic |
| Cc1[nH]c(/C=C2\C(=O)Nc3ccc(F)cc32)c(C)c1C(=O)N1CCC(N(C)C)CC1 | Active | Active | Active | – | – | – | – | – | – | Activity [12]: Toxic; Activity [13]: Toxic; Activity [14]: Toxic; Activity [15]: Toxic; Activity [16]: Toxic |
| CCN(CC)CCC(=O)Nc1c(C)[nH]c(/C=C2\C(=O)Nc3ccc(Cl)cc32)c1C | Active | – | Active | – | – | – | – | – | – | Activity [17]: Toxic; Activity [18]: Toxic |
| Cc1[nH]c(/C=C2\C(=O)Nc3ccc(F)cc32)c(C)c1NC(=O)CCCN(C)C | Active | Active | Active | – | – | – | – | – | – | – |
| Cc1[nH]c(/C=C2\C(=O)Nc3ccc(F)cc32)c(C)c1NC(=O)CCN1CCOCC1 | Active | inactive | Active | – | – | Non-toxic | Non-toxic | – | – | – |
| Cc1[nH]c(/C=C2\C(=O)Nc3ccc(F)cc32)c(C)c1NC(=O)CCN1CCCC1 | Active | – | Active | Non-toxic | Non-toxic | – | – | Active | Non-toxic | – |
